Data as given in patent US20230416265A1, “COMPOUNDS FOR THE DETECTION OF HEME OXYGENASE 1 (HO-1), AND METHODS AND USES INVOLVING THE SAME” (IMPERIAL COLLEGE INNOVATIONS LIMITED, priority 2020, published 2023).
Where “and” joins values, the source holds several entries; their conditions need not be identical. Identical values can stand only once.

Key:
[1] = Photophysical studies in chloroform; assay type: physicochemical; settings: 298 K; for Emission λmax [nm] / E [%] (FRET efficiency): λex = 320 nm; for Ø514 nm [%] (quantum yield): ± 20%, standard H2TPP in toluene (Ø514 nm = 0.11)
Method: UV-Visible absorption spectra were measured using an Agilent Technologies Cary 60 Spectrophotometer operating with VVinUV software. The sample was held in a quartz cuvette with a path length of 1 cm. Absorption spectra were recorded against a baseline of pure solvent in an optically matched cuvette with a scan rate of 600 nm/min and a data interval of 1.0 nm. Emission and excitation spectra were acquired on an Agilent Technologies Carry Eclipse Fluorescence Spectrophotometer, in quartz cuvettes with a path length of 1 cm. Emission and excitation spectra were collected with a scan rate of 120.0 nm/min, a delay interval of 1.0 nm and band-passes of 5 nm. […]
(§1) In the examples highlighted above, the sample concentration was […] in PBS buffer and 10 pM in chloroform. All measurements were performed at 298 K.

[2] = Photophysical studies in PBS buffer pH 7.4; assay type: physicochemical; settings: PBS buffer pH 7.4, 20 μM, λex = 320 nm, 298 K
[3] = Photophysical studies in PBS buffer pH 7.4; assay type: physicochemical; settings: for E [%] (FRET efficiency): PBS buffer pH 7.4, 20 μM, 298 K; for Ø514 nm [%] (quantum yield): PBS buffer pH 7.4, 298 K, ± 20%, standard H2TPP in toluene (Ø514 nm = 0.11)
Method: UV-Visible absorption spectra were measured using an Agilent Technologies Cary 60 Spectrophotometer operating with VVinUV software. The sample was held in a quartz cuvette with a path length of 1 cm. Absorption spectra were recorded against a baseline of pure solvent in an optically matched cuvette with a scan rate of 600 nm/min and a data interval of 1.0 nm. Emission and excitation spectra were acquired on an Agilent Technologies Carry Eclipse Fluorescence Spectrophotometer, in quartz cuvettes with a path length of 1 cm. Emission and excitation spectra were collected with a scan rate of 120.0 nm/min, a delay interval of 1.0 nm and band-passes of 5 nm.
Measurements were recorded in aqueous solutions of PBS buffer at pH 7.4 in order to mimic physiological conditions.
as §1

HO-1 = molecular target: T1, HO-1 (Homo sapiens, UniProt P09601); experiment: Control experiment: quenching of coumarin 1i fluorescence on addition of HO-1 in E. coli lysates; assay type: biochemical; settings: λex = 320 nm
T1 construct: made in house; host or cells: E. coli (lysate)
T1 sequence (P09601 1-288): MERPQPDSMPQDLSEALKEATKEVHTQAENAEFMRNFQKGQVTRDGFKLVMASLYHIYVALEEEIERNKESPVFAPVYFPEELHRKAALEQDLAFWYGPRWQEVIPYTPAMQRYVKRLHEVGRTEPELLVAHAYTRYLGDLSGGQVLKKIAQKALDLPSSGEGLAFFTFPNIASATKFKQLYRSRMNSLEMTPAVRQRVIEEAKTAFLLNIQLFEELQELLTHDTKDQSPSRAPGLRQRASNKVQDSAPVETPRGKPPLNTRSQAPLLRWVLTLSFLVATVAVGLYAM

Row | Molecule | Emission λmax [nm] [1] | Emission λmax [nm] [2] | E [%] (FRET efficiency) ([3]; λex = 320 nm) | Ø514 nm [%] (quantum yield) [3] | Ø514 nm [%] (quantum yield) [1] | E [%] (FRET efficiency) [1] | decrease in the emission intensity at 384 nm following addition of HO-1 (HO-1) | porphyrin emission following Fe2+ complexation ([3]; PBS buffer and chloroform, λex = 320 nm)
1 | Cc1cc(=O)oc2cc(OCCOc3ccc(C(=O)O)cc3)ccc12 [Compound 1i, 4-(2-((4-Methyl-2-oxo-2H-chromen-7-yl)oxy)ethoxy)benzoic acid] | 381 nm | 384 nm | – | – | – | – | 2.3 fold | –
2 | Cc1cc(=O)oc2cc(OCCOc3ccc(-c4c5nc(c(-c6ccccc6)c6ccc([nH]6)c(-c6ccccc6)c6nc(c(-c7ccccc7)c7ccc4[nH]7)C=C6)C=C5)cc3)ccc12 [Compound C3g, reference compound] | 379 nm and 654 nm and 719 nm | 383 nm | 96.8% | 2.0% | 17.4% | 96.6% | – | –

The remaining lines, values ahead:

Row | Emission λmax [nm] [1] | Emission λmax [nm] [2] | E [%] (FRET efficiency) ([3]; λex = 320 nm) | Ø514 nm [%] (quantum yield) [3] | Ø514 nm [%] (quantum yield) [1] | E [%] (FRET efficiency) [1] | decrease in the emission intensity at 384 nm following addition of HO-1 (HO-1) | porphyrin emission following Fe2+ complexation ([3]; PBS buffer and chloroform, λex = 320 nm) | Molecule
3 | 382 nm | 384 nm and 383 ^[b] nm | – | – | – | – | – | – | Cc1cc(=O)oc2cc(OCCBr)ccc12 [Compound 1f]
4 | 385 nm and 629 nm and 695 nm | 387 nm | 95.1% | 0.5% | 5.2% | 99.7% | – | – | COC(=O)CCC1=C(C)c2cc3[nH]c(c(C)c3C)c(-c3ccc(OCCOc4ccc5c(C)cc(=O)oc5c4)cc3)c3nc(cc4[nH]c(cc1n2)c(CCC(=O)OC)c4C)C(C)=C3C [Compound 1g]
5 | 385^[a], [b] nm | 387 ^[b], [c] nm | 99.2% | – | – | 98.7% | – | completely quenched | Iron(11) dimethyl 3,3′-(3,7,8,12,13,17-hexamethyl-10-(4-(2-((4-methyl-2-oxo-2H-chromen-7-yl)oxy)ethoxy) phenyl)porp-hyrin-2,18-diyl)dipropionate [Compound 1h]
